Measured values as given in publication PMC8213057, “Targeting ALK2: An Open Science Approach to Developing Therapeutics for the Treatment of Diffuse Intrinsic Pontine Glioma” (Journal of Medicinal Chemistry, 2020).
Values joined by “and” are separate entries in the source; they are usually repeats but may differ in a detail not shown here. Equal entries are not always repeated.

Legend:
ALK1/ACVRL1 = biological target: T1, ALK1/ACVRL1 (Homo sapiens, UniProt P37023); assay: 375-member kinase panel; format: biochemical; settings: Run 1, Run 2; for % enzyme activity: 1 μM
T1 construct: purchased Reaction Biology Corporation

ZAK/MLTK = ZAK/MLTK (Homo sapiens, UniProt Q9NYL2); assay: 375-member kinase panel; format: biochemical; settings: Run 1, Run 2; for % enzyme activity: 1 μM; for remaining activity at 1 µM: read-out: % enzyme activity, 1 μM
CK1a1L = biological target: T2, CK1a1L (Homo sapiens, UniProt Q8N752); settings: 1 μM; Run 1, Run 2
T2 sequence (Q8N752 1-337): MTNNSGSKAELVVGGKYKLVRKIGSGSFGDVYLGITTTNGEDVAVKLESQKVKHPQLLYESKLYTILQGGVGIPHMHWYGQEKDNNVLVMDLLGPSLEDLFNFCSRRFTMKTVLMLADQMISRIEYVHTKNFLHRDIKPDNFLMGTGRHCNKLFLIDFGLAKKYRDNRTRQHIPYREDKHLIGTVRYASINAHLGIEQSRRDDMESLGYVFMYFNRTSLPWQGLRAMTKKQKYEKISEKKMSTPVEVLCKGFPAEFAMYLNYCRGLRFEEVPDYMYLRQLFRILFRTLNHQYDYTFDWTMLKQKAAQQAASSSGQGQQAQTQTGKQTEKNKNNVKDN

GSK3b = GSK3b (Homo sapiens, UniProt P49841); settings: 1 μM; Run 1, Run 2
MARK1 = MARK1 (Homo sapiens, UniProt Q9P0L2); settings: 1 μM; Run 1, Run 2
p70S6Kb/RPS6KB2 = p70S6Kb/RPS6KB2 (Homo sapiens, UniProt Q9UBS0); settings: 1 μM; Run 1, Run 2
RSK4 = RSK4 (Homo sapiens, UniProt Q9UK32); settings: 1 μM; Run 1, Run 2
TTBK2 = TTBK2 (Homo sapiens, UniProt Q6IQ55); settings: 1 μM; Run 1, Run 2
DLK/MAP3K12 = biological target: T3, DLK/MAP3K12 (Homo sapiens, UniProt Q12852); assay: biochemical; settings: read-out: % enzyme activity, 1 μM; Run 1, Run 2
T3 sequence (Q12852 1-859): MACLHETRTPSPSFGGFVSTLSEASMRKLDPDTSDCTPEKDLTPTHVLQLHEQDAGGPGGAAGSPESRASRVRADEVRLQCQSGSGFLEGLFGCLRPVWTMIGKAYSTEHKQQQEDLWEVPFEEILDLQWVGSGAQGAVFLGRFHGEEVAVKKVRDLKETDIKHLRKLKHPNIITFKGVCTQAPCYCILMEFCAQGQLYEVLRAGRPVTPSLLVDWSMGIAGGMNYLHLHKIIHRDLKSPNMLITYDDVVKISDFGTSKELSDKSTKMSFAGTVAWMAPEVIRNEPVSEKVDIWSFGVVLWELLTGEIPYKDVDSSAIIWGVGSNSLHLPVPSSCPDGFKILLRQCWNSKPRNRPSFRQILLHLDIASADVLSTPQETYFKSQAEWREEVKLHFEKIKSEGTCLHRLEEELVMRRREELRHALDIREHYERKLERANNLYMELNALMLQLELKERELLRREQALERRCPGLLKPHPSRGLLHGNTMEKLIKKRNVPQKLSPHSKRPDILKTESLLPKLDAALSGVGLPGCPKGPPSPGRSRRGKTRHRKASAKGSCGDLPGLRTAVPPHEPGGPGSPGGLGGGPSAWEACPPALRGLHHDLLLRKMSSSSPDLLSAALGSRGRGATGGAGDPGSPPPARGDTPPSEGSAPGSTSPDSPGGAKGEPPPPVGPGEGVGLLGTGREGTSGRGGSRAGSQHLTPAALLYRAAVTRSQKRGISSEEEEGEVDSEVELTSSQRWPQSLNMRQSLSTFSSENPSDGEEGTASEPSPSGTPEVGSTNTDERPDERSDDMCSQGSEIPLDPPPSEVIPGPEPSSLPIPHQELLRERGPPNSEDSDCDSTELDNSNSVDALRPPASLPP

EPHA6 = biological target: T4, EPHA6 (Homo sapiens, UniProt Q9UF33); assay: biochemical; settings: read-out: % enzyme activity, 1 μM; Run 1, Run 2
T4 sequence (Q9UF33 23-1036): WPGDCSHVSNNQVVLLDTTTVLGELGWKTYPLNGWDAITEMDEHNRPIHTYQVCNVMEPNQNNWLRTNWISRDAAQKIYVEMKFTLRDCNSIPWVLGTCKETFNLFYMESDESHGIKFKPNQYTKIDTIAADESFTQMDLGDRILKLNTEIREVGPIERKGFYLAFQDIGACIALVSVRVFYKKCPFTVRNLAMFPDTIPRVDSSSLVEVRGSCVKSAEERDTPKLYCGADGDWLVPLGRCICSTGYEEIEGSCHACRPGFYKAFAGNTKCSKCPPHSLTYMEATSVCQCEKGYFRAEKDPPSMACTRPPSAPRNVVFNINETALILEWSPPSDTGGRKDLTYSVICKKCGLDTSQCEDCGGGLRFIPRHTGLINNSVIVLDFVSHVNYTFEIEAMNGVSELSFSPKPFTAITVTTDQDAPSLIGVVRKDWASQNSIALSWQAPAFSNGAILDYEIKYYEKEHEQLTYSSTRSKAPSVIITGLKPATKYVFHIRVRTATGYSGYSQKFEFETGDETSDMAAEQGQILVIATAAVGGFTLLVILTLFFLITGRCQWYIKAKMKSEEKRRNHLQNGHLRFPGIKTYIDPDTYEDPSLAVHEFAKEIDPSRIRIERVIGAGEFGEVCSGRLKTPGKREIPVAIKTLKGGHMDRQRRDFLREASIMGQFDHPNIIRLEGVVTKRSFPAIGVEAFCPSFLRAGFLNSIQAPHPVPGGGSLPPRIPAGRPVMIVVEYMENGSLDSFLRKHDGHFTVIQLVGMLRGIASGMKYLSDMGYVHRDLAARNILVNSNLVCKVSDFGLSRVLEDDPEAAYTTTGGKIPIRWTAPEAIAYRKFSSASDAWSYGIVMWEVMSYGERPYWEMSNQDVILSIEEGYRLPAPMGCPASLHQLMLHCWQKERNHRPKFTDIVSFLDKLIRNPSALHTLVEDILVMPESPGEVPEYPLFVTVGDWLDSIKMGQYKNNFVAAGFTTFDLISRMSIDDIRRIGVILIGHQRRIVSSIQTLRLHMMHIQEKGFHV

MLCK2/MYLK2 = MLCK2/MYLK2 (Homo sapiens, UniProt Q9H1R3); assay: biochemical; settings: read-out: % enzyme activity, 1 μM; Run 1, Run 2
MRCKb/CDC42BPB = MRCKb/CDC42BPB (Homo sapiens, UniProt Q9Y5S2); assay: biochemical; settings: read-out: % enzyme activity, 1 μM; Run 1, Run 2
TTBK1 = TTBK1 (Homo sapiens, UniProt Q5TCY1); assay: biochemical; settings: read-out: % enzyme activity, 1 μM; Run 1, Run 2
Chain of TTBK1 (Q5TCY1 whole entry): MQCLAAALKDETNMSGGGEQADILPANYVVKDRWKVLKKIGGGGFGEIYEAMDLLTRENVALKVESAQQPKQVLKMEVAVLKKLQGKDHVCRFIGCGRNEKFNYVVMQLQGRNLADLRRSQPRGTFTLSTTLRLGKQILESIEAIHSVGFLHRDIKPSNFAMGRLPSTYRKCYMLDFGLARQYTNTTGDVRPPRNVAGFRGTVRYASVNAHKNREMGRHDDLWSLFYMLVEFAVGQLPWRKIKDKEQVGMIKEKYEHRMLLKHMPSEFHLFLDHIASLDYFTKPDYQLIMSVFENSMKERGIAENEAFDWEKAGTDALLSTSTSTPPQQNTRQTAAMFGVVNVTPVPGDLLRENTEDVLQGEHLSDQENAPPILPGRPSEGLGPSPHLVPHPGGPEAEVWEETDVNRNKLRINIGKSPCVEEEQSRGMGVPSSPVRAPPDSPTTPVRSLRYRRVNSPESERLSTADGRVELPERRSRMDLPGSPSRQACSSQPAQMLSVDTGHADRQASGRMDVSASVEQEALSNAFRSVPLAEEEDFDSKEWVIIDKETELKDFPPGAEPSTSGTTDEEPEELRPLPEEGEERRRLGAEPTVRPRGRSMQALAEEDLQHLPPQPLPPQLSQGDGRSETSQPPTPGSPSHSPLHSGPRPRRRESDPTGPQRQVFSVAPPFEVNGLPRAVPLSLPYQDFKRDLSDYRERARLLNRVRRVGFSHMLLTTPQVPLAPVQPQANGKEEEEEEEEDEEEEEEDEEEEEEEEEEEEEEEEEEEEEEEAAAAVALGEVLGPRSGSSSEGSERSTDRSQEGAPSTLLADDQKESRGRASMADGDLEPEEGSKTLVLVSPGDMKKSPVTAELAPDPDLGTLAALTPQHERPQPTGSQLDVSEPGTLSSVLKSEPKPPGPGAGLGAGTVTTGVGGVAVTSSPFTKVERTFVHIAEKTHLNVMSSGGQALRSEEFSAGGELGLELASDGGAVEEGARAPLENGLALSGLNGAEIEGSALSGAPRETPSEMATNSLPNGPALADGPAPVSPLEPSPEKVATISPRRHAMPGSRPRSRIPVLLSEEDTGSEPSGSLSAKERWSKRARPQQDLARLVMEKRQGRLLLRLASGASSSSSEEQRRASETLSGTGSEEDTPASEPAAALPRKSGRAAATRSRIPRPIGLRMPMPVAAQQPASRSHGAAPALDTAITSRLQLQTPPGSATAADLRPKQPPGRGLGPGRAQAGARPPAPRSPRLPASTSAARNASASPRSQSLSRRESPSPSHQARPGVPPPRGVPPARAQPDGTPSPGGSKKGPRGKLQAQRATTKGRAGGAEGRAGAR

T1 sequence (P37023 22-503): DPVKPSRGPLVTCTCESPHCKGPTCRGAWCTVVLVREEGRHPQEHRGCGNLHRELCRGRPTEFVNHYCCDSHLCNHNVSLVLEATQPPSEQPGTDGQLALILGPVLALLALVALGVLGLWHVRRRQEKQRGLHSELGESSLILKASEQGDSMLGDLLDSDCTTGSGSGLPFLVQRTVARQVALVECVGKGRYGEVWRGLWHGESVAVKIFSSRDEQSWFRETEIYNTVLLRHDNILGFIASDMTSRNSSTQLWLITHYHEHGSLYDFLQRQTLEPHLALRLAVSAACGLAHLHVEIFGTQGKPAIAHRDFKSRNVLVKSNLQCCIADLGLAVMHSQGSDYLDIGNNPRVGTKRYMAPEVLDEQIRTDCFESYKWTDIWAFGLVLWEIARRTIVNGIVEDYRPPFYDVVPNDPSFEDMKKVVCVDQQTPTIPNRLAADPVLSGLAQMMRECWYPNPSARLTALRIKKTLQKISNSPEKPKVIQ
Chain of ZAK/MLTK (Q9NYL2 whole entry): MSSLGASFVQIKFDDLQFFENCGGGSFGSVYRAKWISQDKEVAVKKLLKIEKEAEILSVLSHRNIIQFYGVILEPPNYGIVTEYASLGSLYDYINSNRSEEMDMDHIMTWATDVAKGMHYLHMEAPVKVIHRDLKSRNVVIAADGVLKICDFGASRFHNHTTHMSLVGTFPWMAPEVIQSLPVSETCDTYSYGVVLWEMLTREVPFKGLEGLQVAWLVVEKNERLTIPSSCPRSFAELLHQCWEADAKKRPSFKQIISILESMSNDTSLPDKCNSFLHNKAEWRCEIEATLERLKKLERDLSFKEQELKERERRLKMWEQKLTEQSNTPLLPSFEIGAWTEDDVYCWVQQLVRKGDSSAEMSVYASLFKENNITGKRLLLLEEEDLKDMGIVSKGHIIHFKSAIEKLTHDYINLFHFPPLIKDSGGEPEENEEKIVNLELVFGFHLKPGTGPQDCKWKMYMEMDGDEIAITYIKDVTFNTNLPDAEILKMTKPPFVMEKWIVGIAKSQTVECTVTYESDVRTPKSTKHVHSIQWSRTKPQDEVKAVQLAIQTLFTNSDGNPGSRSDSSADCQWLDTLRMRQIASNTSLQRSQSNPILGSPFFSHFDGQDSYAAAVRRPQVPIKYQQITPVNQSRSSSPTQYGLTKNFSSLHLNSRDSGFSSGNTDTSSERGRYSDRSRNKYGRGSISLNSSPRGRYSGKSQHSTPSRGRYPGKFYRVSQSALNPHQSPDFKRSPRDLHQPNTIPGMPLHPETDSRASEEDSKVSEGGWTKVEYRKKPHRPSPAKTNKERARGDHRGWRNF
Chain of RSK4 (Q9UK32 whole entry): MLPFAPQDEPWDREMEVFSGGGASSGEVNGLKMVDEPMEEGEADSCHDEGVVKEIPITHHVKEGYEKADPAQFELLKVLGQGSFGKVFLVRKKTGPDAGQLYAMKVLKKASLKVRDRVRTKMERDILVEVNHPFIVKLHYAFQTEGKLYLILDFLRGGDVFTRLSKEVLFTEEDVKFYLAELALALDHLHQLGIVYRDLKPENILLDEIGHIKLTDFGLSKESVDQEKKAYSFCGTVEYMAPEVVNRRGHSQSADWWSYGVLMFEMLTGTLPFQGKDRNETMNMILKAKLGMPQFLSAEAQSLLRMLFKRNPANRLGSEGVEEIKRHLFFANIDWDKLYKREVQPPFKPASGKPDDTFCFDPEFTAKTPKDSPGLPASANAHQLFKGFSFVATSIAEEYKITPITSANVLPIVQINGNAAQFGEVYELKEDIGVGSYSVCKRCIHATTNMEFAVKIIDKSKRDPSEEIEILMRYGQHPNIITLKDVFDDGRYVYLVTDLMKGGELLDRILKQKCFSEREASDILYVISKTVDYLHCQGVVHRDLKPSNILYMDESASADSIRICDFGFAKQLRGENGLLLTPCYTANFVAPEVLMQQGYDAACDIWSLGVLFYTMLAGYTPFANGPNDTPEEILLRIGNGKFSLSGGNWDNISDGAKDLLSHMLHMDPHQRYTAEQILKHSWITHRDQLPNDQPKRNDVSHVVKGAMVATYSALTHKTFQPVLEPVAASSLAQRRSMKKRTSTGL
Chain of MLCK2/MYLK2 (Q9H1R3 whole entry): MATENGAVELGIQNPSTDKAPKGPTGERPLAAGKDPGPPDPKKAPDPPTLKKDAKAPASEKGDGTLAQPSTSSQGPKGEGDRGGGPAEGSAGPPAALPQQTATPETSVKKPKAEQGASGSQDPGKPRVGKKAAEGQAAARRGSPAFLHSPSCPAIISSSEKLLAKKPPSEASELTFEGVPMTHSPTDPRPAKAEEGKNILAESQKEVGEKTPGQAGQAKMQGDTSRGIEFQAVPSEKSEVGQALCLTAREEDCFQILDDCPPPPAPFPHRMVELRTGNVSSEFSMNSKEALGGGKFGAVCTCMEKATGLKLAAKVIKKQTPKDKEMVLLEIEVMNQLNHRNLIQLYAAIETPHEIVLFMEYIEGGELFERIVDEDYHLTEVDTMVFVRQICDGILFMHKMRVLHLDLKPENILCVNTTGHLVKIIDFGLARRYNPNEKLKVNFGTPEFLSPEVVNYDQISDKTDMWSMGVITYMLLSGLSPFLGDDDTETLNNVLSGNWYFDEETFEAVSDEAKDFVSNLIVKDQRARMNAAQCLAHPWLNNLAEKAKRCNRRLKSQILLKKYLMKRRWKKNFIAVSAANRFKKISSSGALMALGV
Chain of MARK1 (Q9P0L2 whole entry): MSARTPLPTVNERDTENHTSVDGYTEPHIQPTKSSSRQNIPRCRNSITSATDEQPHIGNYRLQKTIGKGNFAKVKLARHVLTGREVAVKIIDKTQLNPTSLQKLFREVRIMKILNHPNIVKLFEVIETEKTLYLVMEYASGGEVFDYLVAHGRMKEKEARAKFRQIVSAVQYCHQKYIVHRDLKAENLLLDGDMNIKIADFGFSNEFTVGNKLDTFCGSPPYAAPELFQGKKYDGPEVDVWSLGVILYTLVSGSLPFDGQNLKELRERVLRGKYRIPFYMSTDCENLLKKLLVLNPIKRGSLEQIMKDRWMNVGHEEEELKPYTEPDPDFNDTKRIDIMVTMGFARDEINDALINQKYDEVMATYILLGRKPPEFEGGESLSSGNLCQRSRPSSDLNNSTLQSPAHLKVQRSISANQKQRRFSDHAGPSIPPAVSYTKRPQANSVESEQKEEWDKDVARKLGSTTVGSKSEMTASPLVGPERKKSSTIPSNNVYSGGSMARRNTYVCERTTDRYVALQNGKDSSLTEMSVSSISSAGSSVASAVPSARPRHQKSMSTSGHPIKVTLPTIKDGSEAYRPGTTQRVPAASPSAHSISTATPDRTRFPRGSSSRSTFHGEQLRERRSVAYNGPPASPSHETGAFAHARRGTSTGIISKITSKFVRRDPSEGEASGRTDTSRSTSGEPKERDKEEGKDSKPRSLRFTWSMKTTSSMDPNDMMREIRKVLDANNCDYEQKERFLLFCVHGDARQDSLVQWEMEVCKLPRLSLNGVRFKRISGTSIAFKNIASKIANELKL

COc1cc(-c2cncc(-c3ccc(N4CCN(C)CC4)cc3)c2C)cc(F)c1C(N)=O [Compound 26a, 2-Fluoro-6-methoxy-4-(4-methyl-5-(4-(4-methylpiperazin-1-yl)phenyl)pyridin-3-yl)benzamide]
% enzyme activity at 1 μM (ALK5/TGFBR1): 82.5% and 82.3%
% enzyme activity (ALK1/ACVRL1): 2.65%
% enzyme activity (ZAK/MLTK): 30.86%
remaining activity at 1 µM (ZAK/MLTK): 31.3%
% enzyme activity (CK1a1L): 97.55%
% enzyme activity (GSK3b): 84.98%
% enzyme activity (MARK1): 87.63%
% enzyme activity (p70S6Kb/RPS6KB2): 97.21%
% enzyme activity (RSK4): 95.64%
% enzyme activity (TTBK2): 94.62%
remaining activity at 1 µM (DLK/MAP3K12): 93.7%
remaining activity at 1 µM (EPHA6): 105%
remaining activity at 1 µM (MLCK2/MYLK2): 66.8%
remaining activity at 1 µM (MRCKb/CDC42BPB): 94.6%
remaining activity at 1 µM (TTBK1): 97.3%

COc1cc(-c2cncc(-c3ccc(N4C[C@@H](C)N(C)[C@@H](C)C4)cc3)c2C)cc(F)c1C(N)=O [Compound 26c, 2-Fluoro-6-methoxy-4-(4-methyl-5-(4-((3R,5S)-3,4,5-trimethylpiperazin-1-yl)phenyl)pyridin-3-yl)benzamide]
% enzyme activity at 1 μM (ALK5/TGFBR1): 97.2% and 96.6%
% enzyme activity (ALK1/ACVRL1): 4.38%
remaining activity at 1 µM (ALK1/ACVRL1; read-out: % enzyme activity, 1 μM): 4.67%
% enzyme activity (ZAK/MLTK): 46.59%
remaining activity at 1 µM (ZAK/MLTK): 46.6%
% enzyme activity (CK1a1L): 99.15%
% enzyme activity (GSK3b): 88.83%
% enzyme activity (MARK1): 89.90%
% enzyme activity (p70S6Kb/RPS6KB2): 99.09%
% enzyme activity (RSK4): 94.61%
% enzyme activity (TTBK2): 96.48%
remaining activity at 1 µM (DLK/MAP3K12): 99.2%
remaining activity at 1 µM (EPHA6): 106%
remaining activity at 1 µM (MLCK2/MYLK2): 84.8%
remaining activity at 1 µM (MRCKb/CDC42BPB): 99.7%
remaining activity at 1 µM (TTBK1): 99.4%
